The results in this text go back to ChEMBL document CHEMBL1136786, “2002 Medicinal Chemistry Division Award address: monoamine transporters and opioid receptors. Targets for addiction therapy” (J Med Chem, 2003).

What is called IC50 is the midpoint of a concentration-inhibition curve. In general, Ki refers to the dissociation constant of the complex between target and ligand, obtained from inhibition or displacement. A high value points to weaker binding. As usually defined, the ED50 is the dose that gives a 50% effect, or the effect in half of the subjects. A low value points to an effect at a small dose.

“And” between values parts separate entries of the source, which are not always exact repeats. Equal values may be shown once.

The target of test [1] is Sodium-dependent serotonin transporter (Rattus norvegicus, UniProt P31652). Nature of the test: Inhibition of [3H]paroxetine binding at serotonin transporter was determined.
Test [2] is filed under the species Rattus norvegicus. The format is functional, Cardiac ventricle.
Test [3] has as its target Sodium-dependent dopamine transporter (Rattus norvegicus, UniProt P23977). The test can be described thus: Inhibition of [3H]WIN-35428 binding at dopamine transporter was determined.
The subject of test [4] is Rattus norvegicus. The test can be described thus: Half life of recovery for dopamine transporter in striatum after intraventricular injection of 100 nmol of compound. The format is functional, organism-based.
In test [5] the target is T1, Norepinephrine transporter (Rattus norvegicus, UniProt Q9WTR4). Nature of the test: Affinity for norepinephrine transporter determined by [3H]nisoxetine displacement.
The species named for test [6] is Rattus norvegicus. The format is functional, Striatum.
Test [7] concerns Rattus norvegicus. The test can be described thus: Degradation rate constant for dopamine transporter in striatum after intraventricular injection of 100 nmol of compound. The format is functional.
The test system of test [8] is Rattus norvegicus. The test can be described thus: Degradation rate constant for dopamine transporter in nucleus accumbens after intraventricular injection of 100 nmol of compound. The format is functional.
Test [9] deals with T1, Norepinephrine transporter. Nature of the test: Inhibition of [3H]nisoxetine binding at norepinephrine transporter.
Test [10] deals with Rattus norvegicus. The test can be described thus: Half life of recovery for dopamine transporter in nucleus accumbens after intraventricular injection of 100 nmol of compound. The format is functional, organism-based.
In test [11] the target is Sodium-dependent dopamine transporter (Homo sapiens, UniProt Q01959). The test can be described thus: Inhibition of dopamine (DA) reuptake using cloned human dopamine transporter was determined.
Test [12] concerns Rattus norvegicus. The test can be described thus: Effective dose of compound required to produce maximal locomotor activity in rat by intraperitoneal administration. In kind it is functional. The settings on record: ip.
Test [13] is filed under the species Mus musculus. Nature of the test: Antagonistic activity of nicotine-induced analgesia in mice was determined. The format is functional.
The target of test [14] is Sodium-dependent noradrenaline transporter (Homo sapiens, UniProt P23975). The test can be described thus: Inhibition of Norepinephrine (NA) reuptake using cloned human Norepinephrine transporter was determined.
For test [15], the system named is Rattus norvegicus. The test can be described thus: Effective dose of compound required to produce maximal locomotor activity in cocaine-trained rat by intraperitoneal administration. The format is functional. The settings on record: ip.
Test [16] relates to Rattus norvegicus. Nature of the test: Maximal locomotor activity of compound compared as a percent of cocaine's effect in rat by intraperitoneal administration. The format is functional.
Test [17] is filed under the species Mus musculus. The test can be described thus: Antagonistic activity of nicotine-induced hypothermia in mice was determined. In kind it is functional.
For test [18], the system named is Rattus norvegicus. The test can be described thus: Time during which activity returned to baseline level in rat by intraperitoneal administration. In kind it is functional.
Test [19] deals with Sodium-dependent serotonin transporter (Homo sapiens, UniProt P31645). Nature of the test: Inhibition of Serotonin (5-HT) reuptake using cloned human transporter was determined.
Test [20] relates to Rattus norvegicus. The test can be described thus: Time taken to produce maximal locomotor activity at 30 min period in rat by intraperitoneal administration. The format is functional.
The species entered for test [21] is Rattus norvegicus. The test can be described thus: Half life of recovery for dopamine transporter in striatum was determined. In kind it is functional.
Test [22] is filed under the species Rattus norvegicus. The test can be described thus: Half life of recovery for dopamine transporter in nucleus accumbens was determined. The format is functional.
The species named for test [23] is Rattus norvegicus. Nature of the test: Degradation rate constant for dopamine transporter in striatum was determined. The format is functional.
For test [24], the species on record is Rattus norvegicus. Nature of the test: Degradation rate constant for dopamine transporter in nucleus accumbens was determined. The format is functional.

T1 sequence (Q9WTR4 whole entry): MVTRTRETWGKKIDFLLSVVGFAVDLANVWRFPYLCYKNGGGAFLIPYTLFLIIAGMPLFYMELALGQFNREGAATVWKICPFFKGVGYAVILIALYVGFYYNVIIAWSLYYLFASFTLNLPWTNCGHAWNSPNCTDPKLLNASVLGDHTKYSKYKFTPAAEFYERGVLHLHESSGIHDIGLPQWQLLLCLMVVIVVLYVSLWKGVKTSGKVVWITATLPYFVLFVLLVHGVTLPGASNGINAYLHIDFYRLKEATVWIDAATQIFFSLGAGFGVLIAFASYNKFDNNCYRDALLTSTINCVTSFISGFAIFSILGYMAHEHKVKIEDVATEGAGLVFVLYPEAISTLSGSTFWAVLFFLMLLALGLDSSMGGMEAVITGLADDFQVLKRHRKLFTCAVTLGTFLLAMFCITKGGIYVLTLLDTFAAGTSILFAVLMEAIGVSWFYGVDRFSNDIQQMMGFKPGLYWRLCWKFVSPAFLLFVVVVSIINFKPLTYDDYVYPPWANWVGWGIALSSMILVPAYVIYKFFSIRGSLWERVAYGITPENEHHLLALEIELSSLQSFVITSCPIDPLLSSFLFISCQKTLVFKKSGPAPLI
Chain of Sodium-dependent serotonin transporter (Rattus norvegicus, UniProt P31652) (P31652 whole entry): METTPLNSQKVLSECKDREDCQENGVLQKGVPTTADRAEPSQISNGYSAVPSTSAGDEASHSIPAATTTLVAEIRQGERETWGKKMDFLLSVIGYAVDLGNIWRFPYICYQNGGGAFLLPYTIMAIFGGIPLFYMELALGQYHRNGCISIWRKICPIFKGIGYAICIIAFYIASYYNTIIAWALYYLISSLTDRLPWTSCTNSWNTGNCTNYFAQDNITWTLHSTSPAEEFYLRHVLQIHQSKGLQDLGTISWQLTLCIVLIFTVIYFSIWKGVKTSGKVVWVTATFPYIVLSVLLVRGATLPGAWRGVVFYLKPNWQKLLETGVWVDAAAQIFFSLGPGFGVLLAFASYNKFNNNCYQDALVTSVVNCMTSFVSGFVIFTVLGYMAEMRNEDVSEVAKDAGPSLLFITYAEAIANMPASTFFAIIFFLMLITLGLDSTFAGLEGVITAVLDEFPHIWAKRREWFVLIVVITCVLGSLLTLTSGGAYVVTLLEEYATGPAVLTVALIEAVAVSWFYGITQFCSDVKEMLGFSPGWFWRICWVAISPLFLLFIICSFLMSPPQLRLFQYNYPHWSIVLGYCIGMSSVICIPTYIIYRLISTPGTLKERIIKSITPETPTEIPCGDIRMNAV
Chain of Sodium-dependent dopamine transporter (Rattus norvegicus, UniProt P23977) (P23977 whole entry): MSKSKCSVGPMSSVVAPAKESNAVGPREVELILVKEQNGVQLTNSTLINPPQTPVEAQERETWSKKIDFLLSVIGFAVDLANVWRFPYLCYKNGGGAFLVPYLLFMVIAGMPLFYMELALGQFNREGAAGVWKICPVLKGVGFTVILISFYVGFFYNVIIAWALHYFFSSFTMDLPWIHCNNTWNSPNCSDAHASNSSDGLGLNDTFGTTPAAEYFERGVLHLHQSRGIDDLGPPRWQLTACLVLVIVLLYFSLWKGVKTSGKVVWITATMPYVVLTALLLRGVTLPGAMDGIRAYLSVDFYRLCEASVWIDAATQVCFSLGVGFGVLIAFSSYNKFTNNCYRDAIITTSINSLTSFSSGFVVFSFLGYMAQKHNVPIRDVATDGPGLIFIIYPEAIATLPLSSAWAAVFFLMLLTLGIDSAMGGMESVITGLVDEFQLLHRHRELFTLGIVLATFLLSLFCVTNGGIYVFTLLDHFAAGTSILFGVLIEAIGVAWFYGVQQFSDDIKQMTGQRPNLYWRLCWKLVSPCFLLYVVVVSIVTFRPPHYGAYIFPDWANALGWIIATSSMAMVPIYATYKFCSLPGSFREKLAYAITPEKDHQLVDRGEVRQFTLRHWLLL
Chain of Sodium-dependent noradrenaline transporter (P23975 whole entry): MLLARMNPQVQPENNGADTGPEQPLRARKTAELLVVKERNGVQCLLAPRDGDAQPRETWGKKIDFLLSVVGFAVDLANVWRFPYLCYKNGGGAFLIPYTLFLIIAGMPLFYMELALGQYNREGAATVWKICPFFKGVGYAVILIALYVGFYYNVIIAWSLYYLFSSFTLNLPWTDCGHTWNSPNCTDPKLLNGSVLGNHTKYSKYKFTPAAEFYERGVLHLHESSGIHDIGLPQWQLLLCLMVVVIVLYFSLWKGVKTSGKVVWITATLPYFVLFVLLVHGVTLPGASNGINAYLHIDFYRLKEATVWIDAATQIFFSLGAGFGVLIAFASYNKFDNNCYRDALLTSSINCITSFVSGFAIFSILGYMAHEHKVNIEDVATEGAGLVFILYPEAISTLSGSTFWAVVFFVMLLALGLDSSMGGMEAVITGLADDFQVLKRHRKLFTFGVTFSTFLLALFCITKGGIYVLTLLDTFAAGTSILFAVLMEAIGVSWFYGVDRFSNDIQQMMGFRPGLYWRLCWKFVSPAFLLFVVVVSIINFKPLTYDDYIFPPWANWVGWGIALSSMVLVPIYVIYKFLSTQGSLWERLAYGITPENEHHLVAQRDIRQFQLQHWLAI
Chain of Sodium-dependent serotonin transporter (Homo sapiens, UniProt P31645) (P31645 whole entry): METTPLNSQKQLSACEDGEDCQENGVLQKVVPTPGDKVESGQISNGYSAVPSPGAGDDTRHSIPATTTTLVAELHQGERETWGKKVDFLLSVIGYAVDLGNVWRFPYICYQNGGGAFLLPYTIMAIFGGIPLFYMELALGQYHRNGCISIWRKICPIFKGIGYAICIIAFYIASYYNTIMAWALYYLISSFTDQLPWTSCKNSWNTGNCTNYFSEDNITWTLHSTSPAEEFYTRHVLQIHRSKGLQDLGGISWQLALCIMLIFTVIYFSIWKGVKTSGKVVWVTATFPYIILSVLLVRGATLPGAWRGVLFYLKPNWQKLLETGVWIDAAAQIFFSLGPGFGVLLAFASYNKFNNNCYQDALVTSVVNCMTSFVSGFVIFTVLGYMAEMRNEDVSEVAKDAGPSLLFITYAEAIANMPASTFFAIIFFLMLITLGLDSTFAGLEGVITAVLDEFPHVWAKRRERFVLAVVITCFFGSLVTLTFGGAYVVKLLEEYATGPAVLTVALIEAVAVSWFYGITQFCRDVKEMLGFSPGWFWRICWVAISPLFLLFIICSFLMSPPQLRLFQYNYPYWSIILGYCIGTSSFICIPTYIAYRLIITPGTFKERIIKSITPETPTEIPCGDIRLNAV
Chain of Sodium-dependent dopamine transporter (Homo sapiens, UniProt Q01959) (Q01959 whole entry): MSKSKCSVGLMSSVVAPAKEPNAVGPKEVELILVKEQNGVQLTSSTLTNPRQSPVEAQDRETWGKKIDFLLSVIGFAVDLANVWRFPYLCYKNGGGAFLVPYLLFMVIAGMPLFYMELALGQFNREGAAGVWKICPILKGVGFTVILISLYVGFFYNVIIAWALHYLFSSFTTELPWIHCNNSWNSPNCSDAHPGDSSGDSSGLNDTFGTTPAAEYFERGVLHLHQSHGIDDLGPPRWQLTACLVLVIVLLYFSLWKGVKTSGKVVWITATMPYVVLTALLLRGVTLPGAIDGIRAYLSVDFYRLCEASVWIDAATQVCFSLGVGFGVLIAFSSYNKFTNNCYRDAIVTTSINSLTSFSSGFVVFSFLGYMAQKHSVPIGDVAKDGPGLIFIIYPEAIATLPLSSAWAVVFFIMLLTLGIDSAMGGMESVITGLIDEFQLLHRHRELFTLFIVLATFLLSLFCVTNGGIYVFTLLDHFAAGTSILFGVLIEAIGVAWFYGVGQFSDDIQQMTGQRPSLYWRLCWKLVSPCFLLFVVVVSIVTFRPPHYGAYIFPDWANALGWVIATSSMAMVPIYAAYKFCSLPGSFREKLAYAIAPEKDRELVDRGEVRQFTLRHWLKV

In the case of `CN1C2CC[C@@H]1C[C@H](c1ccc(Cl)cc1)C2C(=O)OCCc1ccc(N=S)cc1` (stereo not given in full), the IC50 amounted to 7.1 nM in test [1], 5.3 nM in test [3] and 1400 nM in test [9]. For the same compound, the inhibitory constant (Ki) in [1] came to 0.65 nM; in [5] it was 843 nM. For the same compound, the “Transporter production rate (r)” value in the test listed under Rattus norvegicus [2] stood at 106 fM/mg/day; in the test filed under Rattus norvegicus [6], 202 fM/mg/day. The T1/2 in the test on Rattus norvegicus [4] and in the test on Rattus norvegicus [10] was 50.4 h in each case. The results for the “Transporter deg rate const (k)” value with Rattus norvegicus [7] and with Rattus norvegicus [8] were 0.34 day⁻¹ and 0.3 day⁻¹, respectively.

In the case of `COC(=O)C1C2CC[C@H](C[C@@H]1c1ccc(Cl)c(C)c1)N2C` (stereo not given in full), the half-maximal inhibitory concentration (IC50) was 0.6 nM in test [11]; 10.5 nM in [1]; 0.81 nM in test [3]; 0.8 nM in [14]; 36.2 nM in test [9]; 1 nM in test [19]. The values for the 50% effective dose (ED50) in the test on Rattus norvegicus [12] and in the test with Rattus norvegicus [15] were 2.2 mg/kg and 0.21 mg/kg, respectively. Also, the Ki was found to be 0.95 nM in test [1] and 2.8 nM in test [5]. Moreover, the AD50 came out at 3.5 mM/kg in the test filed under Mus musculus [13] and 1.5 mM/kg in the test filed under Mus musculus [17]. The “Maximal locomotor activity (% of cocaine)” value in the test on Rattus norvegicus [16] is 75%. The Time with Rattus norvegicus [18] was over 4 h. In addition, the Peak time in the test with Rattus norvegicus [20] is listed as 30 min.

As to `COC(=O)[C@H]1[C@@H](OC(=O)c2ccccc2)C[C@@H]2CC[C@H]1N2C` [COCAINE], the Change in the test filed under Rattus norvegicus [21] is 22%; in the test filed under Rattus norvegicus [22], 43%; in the test listed under Rattus norvegicus [23], -17% and -16%; in the test filed under Rattus norvegicus [24], -30% and -27%. Also, the ED50 in the test on Rattus norvegicus [12] is 21 mg/kg; with Rattus norvegicus [15] it was 2.5 mg/kg. Further, the “Maximal locomotor activity (% of cocaine)” value with Rattus norvegicus [16] worked out at 100%. This compound also displayed a Time with Rattus norvegicus [18] of under 2 h. In the test with Rattus norvegicus [20], this compound had a Peak time of 0 min.
